Source: US7294496B1, “Cloned human lysophospholipase” (The Regents of the University of California, priority 2000, dated 2007)
Where two headings read alike, the source gives them in different places.

Tests used:
[1] = target: T1, human recombinant LysoPLA (Homo sapiens, UniProt O75608, F152L); format: biochemical
T1 construct: made in house; host or cells: E. coli BL21(DE3)

[2] = target: mouse LysoPLA (Mus musculus, UniProt P97823); assay: Inhibition of mouse LysoPLA; format: biochemical
Procedure: Various concentrations of each inhibitor (BioMol) were prepared in DMSO. 5 μl of each inhibitor was added to 480 μl of LysoPC substrate (125 μM Ly-soPC in the assay buffer). Enzyme (either mouse or human PLA) was added to the substrate-inhibitor mixture to start the reaction, which was incubated at 40° C. for 30 min. Control experiments were performed with the same amount of enzyme with 5 μl DMSO in the incubation mixture. The reversibility of the inhibition was tested by pre-incubation of the enzyme in the presence or absence of the inhibitor, followed by overnight dialysis in the assay buffer. The recovery of the enzyme activity as a function of time was then followed. Each data point represents an average of duplicates.

[3] = mouse enzyme, 125 μM LysoPC, similar results as human enzyme

T1 sequence (O75608 whole entry F152L): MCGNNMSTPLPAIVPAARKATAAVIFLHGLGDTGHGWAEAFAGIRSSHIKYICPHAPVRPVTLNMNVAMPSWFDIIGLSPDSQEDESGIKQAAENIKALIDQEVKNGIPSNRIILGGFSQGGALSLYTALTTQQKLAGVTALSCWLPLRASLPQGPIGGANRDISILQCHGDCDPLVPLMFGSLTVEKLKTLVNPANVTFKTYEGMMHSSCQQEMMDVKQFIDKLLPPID
mouse LysoPLA, sequence (P97823 whole entry): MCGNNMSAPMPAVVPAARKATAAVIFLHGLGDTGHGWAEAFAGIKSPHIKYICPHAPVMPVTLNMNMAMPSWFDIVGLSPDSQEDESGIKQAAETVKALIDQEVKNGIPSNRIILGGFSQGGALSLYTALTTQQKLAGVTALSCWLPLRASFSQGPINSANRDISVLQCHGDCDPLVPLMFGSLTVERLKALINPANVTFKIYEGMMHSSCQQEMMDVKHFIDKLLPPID

Row | SMILES | inhibition of LysoPLA activity (in words) ([1]; human enzyme, 125 μM LysoPC) | inhibition of LysoPLA activity (in words) [2, 3] | inhibition of LysoPLA activity (in words) [1] | inhibition of LysoPLA activity (in words) [2]
1 | O=C1O/C(=C/Br)CCC1c1cccc2ccccc12 (stereo not drawn) [BEL, bromoenol lactone] | neither of them inhibited the LysoPLA activity well | neither of them inhibited the LysoPLA activity well |  | 
2 | CCCCCCCCCCCCCCCC(=O)C(F)(F)F [PACOCF3, palmitoyl tri£uoromethyl ketone] | neither of them inhibited the LysoPLA activity well | neither of them inhibited the LysoPLA activity well |  | 
3 | CCCCCCCCCCCCCCCCOC[C@@H](O)COP(=O)([O-])OCC[N+](C)(C)C [LysoPAF] |  |  | not a good inhibitor | not a good inhibitor
